In US11572373B2, “Maytansinoid-based drug delivery systems” (LADRX CORPORATION, priority 2017, dated 2023):

System: human tumor xenograft models
Assay: Antitumor activity in human tumor xenograft mice models
Type: in vivo
Settings: five human tumor xenograft models in nude mice, i.v. on day 1, 8, 15, and 22
Description: This included starting tumor volumes in the range of approximately 80-110 mm^3 but also initial starting tumor volumes of up to approximately 400 mm^3. Furthermore, in most cases therapy with albumin-binding maytansinoids 30 and 31 induced long-term remissions and a decrease in Relative Tumor Volume (RTV). […] Experimental procedure and the results in the tumor-bearing mice models are described in detail in Examples 11-19 and FIGS. 3-16.
Female immunodeficient NMRI nude mice, from Charles River, received unilateral tumor implants subcutaneously in the left flank while under isoflurane anesthesia with human cancer tumors until tumors were palpable and had reached a volume of 80-200 mm^3 (unless otherwise stated).
Animals were kept in cages, the temperature inside the cages maintained at 25±1° C. with a relative humidity of 45-65% and an air change rate in the cage of 60-fold per hour. They were kept under a 14 h light: 10 h dark, artificial light cycle. The animals were fed with autoclaved Teklad Global 19% Protein Extruded Diet (T.2019S.12) from Envigo RMS SARL and had access to sterile filtered and acidified (pH 2.5) tap water, which was changed twice weekly. Feed and water were provided ad libitum. […] Animals were routinely monitored twice daily on working days and daily on Saturdays and Sundays. […] Relative body weights (RBW) of individual animals were calculated by dividing the individual absolute body weight on day X (BWx) by the individual body weight on the day of randomization multiplied by 100%. The tumor volume was determined by a two-dimensional measurement with calipers on the day of randomization (day 0) and then twice weekly. Tumor volumes were calculated according to the following equation: Tumor Vol [mm^3]=1 [mm]×w^2 [mm^2]×0.5, where “1” is the length and “w” is width of the tumor. The relative volume of an individual tumor on day X (RTVx) was calculated by dividing the absolute individual tumor volume [mm^3] of the respective tumor on day X (Tx) by the absolute individual tumor volume of the same tumor on the day of randomization multiplied by 100%. […]

In the case of `COc1cc2cc(c1Cl)N(C)C(=O)C[C@H](OC(=O)COc1cccc(/C(C)=N/NC(=O)c3ccc(NC(=O)CCCCCN4C(=O)C=CC4=O)cc3S(=O)(=O)O)c1)[C@]1(C)O[C@H]1[C@H](C)[C@@H]1C[C@@](O)(NC(=O)O1)[C@H](OC)/C=C/C=C(\C)C2` [Compound 31], the antitumor activity is reported as “partial and complete tumor regressions”.
